Results from patent US10946016B2, “Solid forms of an epidermal growth factor receptor kinase inhibitor” (Celgene CAR LLC, priority 2012, dated 2021).
“Also recorded” adds a separate entry of the source.

Legend:
Type in all cases: physicochemical
[1] = Stability at 40° C./75% RH for 1 week and 2 weeks (XRPD and HPLC); conditions: open container
Procedure: Samples of each form were exposed to an environment of 40° C./75% RH for 1 week and 2 week periods to determine stability. Resulting solids were analysed by XRPD and HPLC to establish if any changes had occurred.

[2] = Dynamic vapour sorption (DVS) with post DVS XRPD; conditions: for DVS water uptake: between 20 and 70% RH
Procedure: For dynamic vapour sorption (DVS), approximately 10 mg of sample was placed into a wire mesh vapour sorption balance pan and loaded into a DVS-1 dynamic vapour sorption balance by Surface Measurement Systems. The sample was subjected to a ramping profile from 20-90% relative humidity (RH) at 10% increments, maintaining the sample at each step until a stable weight had been achieved (99.5% step completion). After completion of the sorption cycle, the sample was dried using the same procedure, but all the way down to 0% RH and finally taken back to the starting point of 20% RH. The weight change during the sorption/desorption cycles were plotted, allowing for the hygroscopic nature of the sample to be determined.

[3] = XRPD after heating or drying (solid form conversion)
Procedure: X-ray powder diffraction (XRPD) analysis was carried out on a Siemens D5000, scanning the samples between 3 and 30 or 50° 2-theta. For samples <100 mg, ca. 5-10 mg of sample was gently compressed onto a glass slide which fitted into the sample holder. For samples >100 mg, ca. 100 mg of sample was gently compressed into a plastic sample holder, so that the sample surface was smooth and just above the level of the sample holder. Measurements were made as follows: In order to determine the relationship between Forms A and B, a sample of Form B was heated to 120° C. and then XRPD analysis was carried out. […] To determine whether Form C remains the same after losing the solvent present, a sample of Form C was heated to 120° C. (i.e., just past the temperature at which the solvent is removed) and then XRPD analysis was carried out. […] In order to determine whether Form E remains the same after losing the solvent present, a sample of Form E was heated to 120° C. (i.e., just past the temperature at which the solvent is lost) and then XRPD analysis was carried out. […] In order to determine whether Form F remains the same after losing the solvent present, a sample of Form F was heated to 120° C. (i.e., just past the temperature at which the solvent is lost) and then XRPD analysis was carried out. […] To examine whether Form H changes to Form A after heating to 115° C. (point after the solvent loss), the Form H material was heated to 115° C. and XRPD analysis and DSC analysis were then carried out. […] The DSC analysis (FIG. 49) indicated overlapping endotherms between ca. 115-135° C., followed by an exotherm at peak 143.9° C., likely indicating a polymorphic transition. A final endotherm was present at onset 202.7° C. (peak 206.6° C.) corresponding with the Form A melt.

[4] = Aqueous solubility: slurries in deionised water, HPLC; conditions: slurry in deionised water shaken ca. 24 hours; for aqueous solubility: assessment in words
Procedure: Slurries of all each polymorphic form were created in deionised water and shaken for ca. 24 hours. The resulting solid was then analysed by HPLC to determine the concentration of material dissolved.

[5] = 7 day stability studies of Form I at 25° C., 80° C., 40° C./75% RH (open and closed)
Procedure: Approximately 15 mg of Form I was placed separately into vials and then exposed to 25° C., 80° C. and 40° C./75% RH environments (open and closed vials) for 1 week to determine stability. The resulting solids were analysed by XRPD and HPLC to establish if any changes had occurred. Results are presented in Tables 2 and 3 and FIGS. 62 and 63.

[6] = Thermodynamic solubility studies at various pH; conditions: for solubility at 24 h: thermodynamic from solid
Procedure: Slurries of Form I were created in media of various pH (pH 1; pH 3; pH 4.5 and pH 6.6) and shaken for ca. 24 hours. After 24 hours, the slurries were filtered and the solution analysed by HPLC in order to determine the solubility at the various pH levels. For the buffer solutions, KCl/HCl was used for pH 1 and citrate/phosphate combinations for pH 3, 4.5 and 6.6 (10 mM). The pH of the solutions was also measured prior to HPLC analysis. XRPD analysis was carried out on the remaining solids after 24 hours of shaking.

[7] = ambient under vacuum 7 days, then 2 days at 40° C.
[8] = closed container, 40° C./75% RH

C=CC(=O)Nc1cccc(Nc2nc(Nc3ccc(N4CCN(C(C)=O)CC4)cc3OC)ncc2C(F)(F)F)c1 [Form B, N-(3-(2-(4-(4-acetylpiperazin-1-yl)-2-methoxyphenylamino)-5-(trifluoromethyl)pyrimidin-4-ylamino)phenyl)acrylamide]
HPLC purity after storage ([1]; 1 week): ca. 96.8% | XRPD analysis after storage ([1]; 1 week): predominantly amorphous | HPLC purity after storage ([1]; 2 week): ca. 95.9% | XRPD analysis after storage ([1]; 2 week): predominantly amorphous | Post DVS XRPD (solid form) [2]: remained Form B | hygroscopicity (DVS) [2]: non-hygroscopic | DVS water uptake [2]: 0.74% | XRPD after heating ([3]; heated to 120° C.): mixture of Form B and Form A | XRPD after heating ([3]; heated to 160° C.): converted predominantly to Form A | detection by HPLC analysis for the aqueous solubility [4]: could not be detected | aqueous solubility [4]: poor

C=CC(=O)Nc1cccc(Nc2nc(Nc3ccc(N4CCN(C(C)=O)CC4)cc3OC)ncc2C(F)(F)F)c1 [Form C, N-(3-(2-(4-(4-acetylpiperazin-1-yl)-2-methoxyphenylamino)-5-(trifluoromethyl)pyrimidin-4-ylamino)phenyl)acrylamide]
HPLC purity after storage ([1]; 1 week): ca. 97.1% | XRPD analysis after storage ([1]; 1 week): converted to Form A with some loss in crystallinity | HPLC purity after storage ([1]; 2 week): ca. 96.8% | XRPD analysis after storage ([1]; 2 week): poorly crystalline with the peaks present corresponding with Form A | DVS analysis observation [2]: contain solvent, which is lost as the relative humidity is increased | Post DVS XRPD (solid form) [2]: converted to Form A | XRPD after drying [3, 7]: some loss in crystallinity and converted to Form A | XRPD after heating ([3]; heated to 120° C.): converted to Form A | detection by HPLC analysis for the aqueous solubility [4]: could not be detected | aqueous solubility [4]: poor

C=CC(=O)Nc1cccc(Nc2nc(Nc3ccc(N4CCN(C(C)=O)CC4)cc3OC)ncc2C(F)(F)F)c1 [Form D, N-(3-(2-(4-(4-acetylpiperazin-1-yl)-2-methoxyphenylamino)-5-(trifluoromethyl)pyrimidin-4-ylamino)phenyl)acrylamide]
HPLC purity after storage ([1]; 1 week): ca. 96.5% | XRPD analysis after storage ([1]; 1 week): converted completely to Form B with some loss in crystallinity | HPLC purity after storage ([1]; 2 week): ca. 95.5% | XRPD analysis after storage ([1]; 2 week): poorly crystalline with the peaks present corresponding with Form B | DVS analysis observation [2]: contain solvent which is lost as the relative humidity is increased | Post DVS XRPD (solid form) [2]: converted completely to Form B | detection by HPLC analysis for the aqueous solubility [4]: could not be detected | aqueous solubility [4]: extremely poor

C=CC(=O)Nc1cccc(Nc2nc(Nc3ccc(N4CCN(C(C)=O)CC4)cc3OC)ncc2C(F)(F)F)c1 [Form E, N-(3-(2-(4-(4-acetylpiperazin-1-yl)-2-methoxyphenylamino)-5-(trifluoromethyl)pyrimidin-4-ylamino)phenyl)acrylamide]
HPLC purity after storage ([1]; 1 week): ca. 97.7% | XRPD analysis after storage ([1]; 1 week): predominantly amorphous with visible peaks present corresponding with Form A | HPLC purity after storage ([1]; 2 week): ca. 97.3% | XRPD analysis after storage ([1]; 2 week): predominantly amorphous with visible peaks present corresponding with Form A | Post DVS XRPD (solid form) [2]: converted to Form A | DVS water uptake [2]: 0.25% | XRPD after drying [3, 7]: lost some crystallinity and converted to Form A | XRPD after heating ([3]; heated to 120° C.): converted to Form A | detection by HPLC analysis for the aqueous solubility [4]: could not be detected | aqueous solubility [4]: extremely poor

C=CC(=O)Nc1cccc(Nc2nc(Nc3ccc(N4CCN(C(C)=O)CC4)cc3OC)ncc2C(F)(F)F)c1 [Form F, N-(3-(2-(4-(4-acetylpiperazin-1-yl)-2-methoxyphenylamino)-5-(trifluoromethyl)pyrimidin-4-ylamino)phenyl)acrylamide]
HPLC purity after storage ([1]; 1 week): ca. 96.8% | XRPD analysis after storage ([1]; 1 week): converted to Form A, with some loss in crystallinity | HPLC purity after storage ([1]; 2 week): ca. 96.3% | XRPD analysis after storage ([1]; 2 week): partially crystalline with peaks present corresponding with Form A | DVS analysis observation [2]: contain solvent, which is lost as the relative humidity is increased | Post DVS XRPD (solid form) [2]: converted predominantly to Form A (traces of Form F remaining) | XRPD after drying [3, 7]: lost some crystallinity and converted predominantly to Form A | XRPD after heating ([3]; heated to 120° C.): converted predominantly to Form A | detection by HPLC analysis for the aqueous solubility [4]: could not be detected; also recorded: below the limit of quantification | aqueous solubility [4]: poor

C=CC(=O)Nc1cccc(Nc2nc(Nc3ccc(N4CCN(C(C)=O)CC4)cc3OC)ncc2C(F)(F)F)c1 [Form G, N-(3-(2-(4-(4-acetylpiperazin-1-yl)-2-methoxyphenylamino)-5-(trifluoromethyl)pyrimidin-4-ylamino)phenyl)acrylamide]
HPLC purity after storage ([1]; 1 week): ca. 96.8% | XRPD analysis after storage ([1]; 1 week): converted predominantly to Form A, with some loss in crystallinity | HPLC purity after storage ([1]; 2 week): ca. 96.2% | XRPD analysis after storage ([1]; 2 week): converted predominantly to Form A, with some loss in crystallinity | DVS analysis observation [2]: contain significant amounts of solvent that are lost as the relative humidity is increased | Post DVS XRPD (solid form) [2]: converted to Form A | XRPD after drying ([3]; 80° C. for 4 days): converted to Form A | XRPD after drying [3, 7]: converted to Form A | aqueous solubility [4]: poor

C=CC(=O)Nc1cccc(Nc2nc(Nc3ccc(N4CCN(C(C)=O)CC4)cc3OC)ncc2C(F)(F)F)c1 [Form I, N-(3-(2-(4-(4-acetylpiperazin-1-yl)-2-methoxyphenylamino)-5-(trifluoromethyl)pyrimidin-4-ylamino)phenyl)acrylamide]
Post DVS XRPD (solid form) [2]: remained as Form I | hygroscopicity (DVS) [2]: relatively non-hygroscopic | DVS mass uptake ([2]; Cycle 1, sorption 20-90% RH): ca. 0.66% | DVS rapid mass loss ([2]; Cycle 2, desorption, between 10-0% RH): ca. 2.7% | DVS mass decrease ([2]; Cycle 2, desorption, between 90-10% RH): ca. 1.2% | DVS moisture uptake ([2]; Cycle 3, sorption, between 0-20% RH): ca. 2.8% | Purity after 1 week ([5]; closed container, 25° C.): 99.4% | XRPD Analysis after 1 week ([5]; closed container, 25° C.): Form I | Purity after 1 week [5, 8]: 99.3% | XRPD Analysis after 1 week [5, 8]: Form I; also recorded: (some loss in crystallinity) | Purity after 1 week ([5]; closed container, 80° C.): 99.2% | XRPD Analysis after 1 week ([5]; closed container, 80° C.): Form I; also recorded: (some loss in crystallinity) | Purity after 1 week ([5]; open container, 25° C.): 98.7% | XRPD Analysis after 1 week ([5]; open container, 25° C.): Form I | Purity after 1 week ([5]; open container, 40° C./75% RH): 98.9% | XRPD Analysis after 1 week ([5]; open container, 40° C./75% RH): Form I | Purity after 1 week ([5]; open container, 80° C.): 98.5% | XRPD Analysis after 1 week ([5]; open container, 80° C.): Form I; also recorded: (some loss in crystallinity) | solubility at 24 h ([6]; aqueous buffer, buffer pH 3 (citrate/phosphate), pH prior to analysis 2.26, ca. 24 hours): 23 µg/mL | solubility at 24 h ([6]; aqueous buffer, buffer pH 4.5 (citrate/phosphate), pH prior to analysis 3.38, ca. 24 hours): 2 µg/mL | Solubility ([6]; buffer pH 6.6 (citrate/phosphate), pH prior to analysis 5.04, ca. 24 hours): Not detected | XRPD of solids remaining after thermodynamic solubility experiment ([6]; pH 1, after 24 hours): mixture of Form I and possibly the HCl salt | XRPD of solids remaining after thermodynamic solubility experiment ([6]; pH 6.6, 4.5 and 3.0, after 24 hours): remained as Form I | solubility at 24 h ([6]; simulated gastric fluid, buffer pH 1 (KCl/HCl), pH prior to analysis 0.95, ca. 24 hours): 3270 µg/mL
